Laboratory results: patent US8404856B2, “Non-nucleoside reverse transcriptase inhibitors” (Merck Sharp & Dohme Corp., priority 2007, dated 2013)
Read-outs that look alike come from different tables or passages of the source.

Legend:
[1] = target: T1, HIV reverse transcriptase with the Y181C mutation (Human immunodeficiency virus type 1 group M subtype B, UniProt P04585, Y768C); assay: ECL assay for inhibition of mutant HIV reverse transcriptase (Y181C); type: biochemical, HIV-1
T1 construct: made in house
Protocol: (§1) 100 μL reaction mixtures were initiated with a combination of primer-template substrate (10 nM final concentration) and dNTPs (0.6 μM dNTPs, 1.25 μM BrdUTP). The heterodimeric nucleic acid substrate was generated by annealing the DNA primer pD500 (described in Shaw-Reid et al., J. Biol. Chem., 278: 2777-2780; obtained from Integrated DNA Technologies) to t500, a 500 nucleotide RNA template created by in vitro transcription (see Shaw-Reid et al., J. Biol. Chem., 278: 2777-2780). After 1 hour incubation at 37° C., reactions were quenched by 10 μL of 1 N NaOH. Microtiter plates were incubated for an additional 30 minutes at room temperature and then neutralized with 10 μL of 1 N HCl. A mixture of detection buffer containing ruthenylated anti-BrdU antibody and streptavidin coated magnetic beads were added to the plate and incubated at room temperature for 1.5 hours prior to quantification via electrochemiluminescence instrument.
(§2) Analogous assays were conducted substituting mutant HIV strains to determine the […] inhibition of compounds of the present invention against mutant HIV reverse transcriptase. In one strain the reverse transcriptase has the Y181C mutation and in the other strain the reverse transcriptase has the K103N mutation. The mutations were generated with the […] site-directed mutagenesis kit (Stratagene).

[2] = target: HIV-1 RT enzyme (wild-type) (Human immunodeficiency virus type 1 group M subtype B, UniProt P04585); assay: ECL assay for inhibition of HIV reverse transcriptase (WT); type: biochemical
Protocol: as §1

[3] = test system: wild type HIV-1; assay: Spread assay: inhibition of acute HIV-1 infection of T-lymphoid cells (WT); type: cell-based; settings: Human immunodeficiency virus 1, T-lymphoid; wild type HIV-1, 10% FBS; read-out: Spread (WT) CIC95 (10% FBS)
Protocol: (§3) Assays for the inhibition of acute HIV-1 infection of T-lymphoid cells (alternatively referred to herein as the “spread assay”) were conducted in accordance with Vacca, J. P. et al., Proc. Natl. Acad. Sci. USA 1994, 91: 4096. The assays tested for inhibition of wild type HIV-1 and of HIV strains containing the Y181C or K103N mutation. […] Table C also reports the CIC95 values of certain of the title compounds of Examples 1-25 obtained in the assays employing the Y181C mutant strain and the K103N mutant strain.

[4] = target: T2, HIV reverse transcriptase with the K103N mutation (Human immunodeficiency virus type 1 group M subtype B, UniProt P04585, K690N); assay: ECL assay for inhibition of mutant HIV reverse transcriptase (K103N); type: biochemical, HIV-1
T2 construct: made in house
Protocol: as §1, §2

[5] = test system: T-lymphoid cells; type: cell-based
Protocol: Cytotoxicity was determined by microscopic examination of the cells in each well in the spread assay, wherein a trained analyst observed each culture for any of the following morphological changes as compared to the control cultures: pH imbalance, cell abnormality, cytostatic, cytopathic, or crystallization (i.e., the compound is not soluble or forms crystals in the well). The toxicity value assigned to a given compound is the lowest concentration of the compound at which one of the above changes is observed.

[6] = test system: HIV strain containing the K103N mutation; assay: Spread assay: inhibition of acute HIV-1 infection of T-lymphoid cells (K103N); type: cell-based; settings: Human immunodeficiency virus 1, T-lymphoid, read-out: Spread (K103N) CIC95 (10% FBS)
Protocol: as §3

[7] = test system: HIV strain containing the Y181C mutation; assay: Spread assay: inhibition of acute HIV-1 infection of T-lymphoid cells (Y181C); type: cell-based; settings: Human immunodeficiency virus 1, T-lymphoid, read-out: Spread (Y181C) CIC95 (10% FBS)
Protocol: as §3

[8] = Y181C mutant RT, read-out: ECL Assay (Y181C) IC50
[9] = wild-type HIV-1 RT, read-out: ECL Assay (WT) IC50
[10] = K103N mutant RT, read-out: ECL Assay (K103N) IC50

## N#Cc1cc(Cl)cc(Oc2nc(NCc3n[nH]c4ncccc34)c(Cl)cc2F)c1 [Compound 1-7, 3-chloro-5-({5-chloro-3-fluoro-6-[(1H-pyrazolo[3,4-b]pyridin-3-ylmethyl)amino]pyridin-2-yl}oxy)benzonitrile]
[1]; [8]
  IC50: 0.4 nM
[2]; [9]
  IC50: 0.3 nM
[3]
  IC95: 3 nM
[4]; [10]
  IC50: 1.5 nM
[5]
  Cytotoxicity: no cytotoxicity at concentrations up to: > 833 nM
[6]
  IC95: 94 nM
[7]
  IC95: 13 nM

## N#Cc1cc(Cl)cc(Oc2nc(NCc3n[nH]c4nc(N)ccc34)c(Cl)cc2F)c1 [Compound 2-7, 3-[(6-{[(6-amino-1H-pyrazolo[3,4-b]pyridin-3-yl)methyl]amino}-5-chloro-3-fluoropyridin-2-yl)oxy]-5-chlorobenzonitrile]
[1]; [8]
  IC50: 1 nM
[2]; [9]
  IC50: 0.5 nM
[3]
  IC95: 3 nM
[4]; [10]
  IC50: 0.6 nM
[5]
  Cytotoxicity: no cytotoxicity at concentrations up to: > 833 nM
[6]
  IC95: 28 nM
[7]
  IC95: 14 nM

## N#Cc1cc(Cl)cc(Oc2cc(CCc3n[nH]c4ncccc34)[nH]c(=O)c2Cl)c1 [Compound 3-8, 3-chloro-5-({3-chloro-2-oxo-6-[2-(1H-pyrazolo[3,4-b]pyridin-3-yl)ethyl]-1,2-dihydropyridin-4-yl}oxy)benzonitrile]
[1]; [8]
  IC50: 3 nM
[2]; [9]
  IC50: 1.9 nM
[3]
  IC95: 7 nM
[4]; [10]
  IC50: 4.7 nM
[5]
  Cytotoxicity: no cytotoxicity at concentrations up to: > 833 nM
[6]
  IC95: 31 nM
[7]
  IC95: 19 nM

## N#Cc1cc(Cl)cc(Oc2cc(CCc3n[nH]c4ncccc34)[nH]c(=O)c2)c1 [Compound 3-9, 3-chloro-5-({2-oxo-6-[2-(1H-pyrazolo[3,4-b]pyridin-3-yl)ethyl]-1,2-dihydropyridin-4-yl}oxy)benzonitrile]
[1]; [8]
  IC50: 11 nM
[2]; [9]
  IC50: 3.8 nM
[3]
  IC95: 55 nM
[4]; [10]
  IC50: 32 nM
[5]
  Cytotoxicity: no cytotoxicity at concentrations up to: > 833 nM
[6]
  IC95: 320 nM
[7]
  IC95: 360 nM

## N#Cc1cc(Cl)cc(Oc2c(Cl)c(CCc3n[nH]c4ncccc34)[nH]c(=O)c2Cl)c1 [Compound 5-6, 3-chloro-5-({3,5-dichloro-2-oxo-6-[2-(1H-pyrazolo[3,4-b]pyridin-3-yl)ethyl]-1,2-dihydropyridin-4-yl}oxy)benzonitrile]
[1]; [8]
  IC50: 1.6 nM
[2]; [9]
  IC50: 1.2 nM
[3]
  IC95: 42 nM
[4]; [10]
  IC50: 1.8 nM
[5]
  Cytotoxicity: no cytotoxicity at concentrations of up to: > 8.5 µM
[6]
  IC95: 367 nM

## CCOC(=O)c1cc(Cl)cc(Oc2c(Cl)c(CCc3n[nH]c4ncccc34)[nH]c(=O)c2Cl)c1 [Compound 5-7, ethyl 3-chloro-5-({3,5-dichloro-2-oxo-6-[2-(1H-pyrazolo[3,4-b]pyridin-3-yl)ethyl]-1,2-dihydropyridin-4-yl}oxy)benzoate]
[1]; [8]
  IC50: 49 nM
[2]; [9]
  IC50: 3.5 nM
[3]
  IC95: 1220 nM
[4]; [10]
  IC50: 52 nM
[5]
  Cytotoxicity: no cytotoxicity at concentrations of up to: > 8.5 µM

## N#Cc1cc(Cl)cc(Oc2cc(CCc3n[nH]c4ncccc34)ncc2Cl)c1 [Compound 6-5, 3-chloro-5-({5-chloro-2-[2-(1H-pyrazolo[3,4-b]pyridin-3-yl)ethyl]pyridin-4-yl}oxy)benzonitrile]
[1]; [8]
  IC50: 270 nM
[2]; [9]
  IC50: 25 nM
[3]
  IC95: 103 nM
[4]; [10]
  IC50: 87 nM
[5]
  Cytotoxicity: no cytotoxicity at concentrations of up to: > 8.5 µM
[6]
  IC95: 361 nM

## Cc1nc(OCc2n[nH]c3ncccc23)c(Cl)c(Oc2cc(Cl)cc(C#N)c2)c1Cl [Compound 7-1, 3-chloro-5-{[3,5-dichloro-2-methyl-6-(1H-pyrazolo[3,4-b]pyridin-3-ylmethoxy)pyridin-4-yl]oxy}benzonitrile]
[1]; [8]
  IC50: 3.5 nM
[2]; [9]
  IC50: 1.3 nM
[3]
  IC95: 100 nM
[4]; [10]
  IC50: 27 nM
[5]
  Cytotoxicity: no cytotoxicity at concentrations of up to: > 8.5 µM
[6]
  IC95: 1700 nM

## N#Cc1cc(Cl)cc(Oc2cc(NCc3n[nH]c4ncccc34)[nH]c(=O)c2Cl)c1 [Compound 8-5, 3-chloro-5-({3-chloro-2-oxo-6-[(1H-pyrazolo[3,4-b]pyridin-3-ylmethyl)amino]-1,2-dihydropyridin-4-yl}oxy)benzonitrile]
[1]; [8]
  IC50: 5.7 nM
[2]; [9]
  IC50: 0.9 nM
[3]
  IC95: 34 nM
[4]; [10]
  IC50: 11 nM
[5]
  Cytotoxicity: no cytotoxicity at concentrations of up to: > 8.5 µM
[6]
  IC95: 833 nM

## N#Cc1cc(Cl)cc(Oc2cc(Cn3c(=O)[nH]c4ccccc43)[nH]c(=O)c2Cl)c1 [Compound 9-8, 3-chloro-5-({3-chloro-2-oxo-6-[(2-oxo-2,3-dihydro-1H-benzimidazol-1-yl)methyl]-1,2-dihydropyridin-4-yl}oxy)benzonitrile]
[1]; [8]
  IC50: 6.3 nM
[2]; [9]
  IC50: 4.8 nM
[3]
  IC95: 638 nM
[4]; [10]
  IC50: 13 nM
[5]
  Cytotoxicity: no cytotoxicity at concentrations of up to: > 8.5 µM

## Cc1ccn(Cc2n[nH]c3ncccc23)c(=O)c1Oc1cc(Cl)cc(C#N)c1 [Compound 11-7, 3-chloro-5-{[4-methyl-2-oxo-1-(1H-pyrazolo[3,4-b]pyridin-3-ylmethyl)-1,2-dihydropyridin-3-yl]oxy}benzonitrile]
[1]; [8]
  IC50: 3.2 nM
[2]; [9]
  IC50: 2.5 nM
[3]
  IC95: 7 nM
[4]; [10]
  IC50: 3.7 nM
[5]
  Cytotoxicity: no cytotoxicity at concentrations up to: > 833 nM
[6]
  IC95: 14 nM

## Cc1ccn(CCc2n[nH]c3ncccc23)c(=O)c1Oc1cc(Cl)cc(C#N)c1 [Compound 12-7, 3-chloro-5-({4-methyl-2-oxo-1-[2-(1H-pyrazolo[3,4-b]pyridin-3-yl)ethyl]-1,2-dihydropyridin-3-yl}oxy)benzonitrile]
[1]; [8]
  IC50: 51 nM
[2]; [9]
  IC50: 25 nM
[3]
  IC95: 248 nM
[4]; [10]
  IC50: 58 nM
[5]
  Cytotoxicity: no cytotoxicity at concentrations up to: > 833 nM
[6]
  IC95: 447 nM

## CN(Cc1ccccc1Cl)C(=O)Cn1ccc(C(F)(F)F)c(Oc2cc(Cl)cc(C#N)c2)c1=O [Compound 14, N-(2-chlorobenzyl)-2-[3-(3-chloro-5-cyanophenoxy)-2-oxo-4-(trifluoromethyl)pyridin-1(2H)-yl]-N-methylacetamide]
[1]; [8]
  IC50: 290 nM
[2]; [9]
  IC50: 300 nM
[3]
  IC95: 330 nM
[4]; [10]
  IC50: 440 nM
[5]
  Cytotoxicity: no cytotoxicity at concentrations up to: > 833 nM
[6]
  IC95: 284 nM

## N#Cc1cc(Cl)cc(Oc2c(C(F)(F)F)ccn(CC(=O)Nc3ccc(S(N)(=O)=O)cc3Cl)c2=O)c1 [Compound 15, N-[4-(aminosulfonyl)-2-chlorophenyl]-2-[3-(3-chloro-5-cyanophenoxy)-2-oxo-4-(trifluoromethyl)pyridin-1 (2H)-yl]acetamide]
[1]; [8]
  IC50: 3.9 nM
[2]; [9]
  IC50: 3.3 nM
[3]
  IC95: 10 nM
[4]; [10]
  IC50: 4.8 nM
[5]
  Cytotoxicity: no cytotoxicity at concentrations up to: > 833 nM
[6]
  IC95: 6 nM

## N#Cc1cc(Cl)cc(Oc2c(Cl)ccn(Cc3n[nH]c4ncccc34)c2=O)c1 [Compound 21-8, 3-chloro-5-{[4-chloro-2-oxo-1-(1H-pyrazolo[3,4-b]pyridin-3-ylmethyl)-1,2-dihydropyridin-3-yl]oxy}benzonitrile]
[1]; [8]
  IC50: 1 nM
[2]; [9]
  IC50: 0.8 nM
[3]
  IC95: 3 nM
[4]; [10]
  IC50: 1.4 nM
[5]
  Cytotoxicity: no cytotoxicity at concentrations up to: > 833 nM
[7]
  IC95: 8 nM

## N#Cc1cc(Cl)cc(Oc2cc(C(O)c3n[nH]c4ncccc34)[nH]c(=O)c2Cl)c1 (stereo not shown) [Compound 25-2]
[1]
  IC50: 4.7 nM
[2]
  IC50: 3.2 nM
[3]
  IC95: 28 nM
[4]
  IC50: 13 nM
[6]
  IC95: 180 nM
